Measurements as given in paper PMC8721105, “Novel Trypanocidal Inhibitors that Block Glycosome Biogenesis by Targeting PEX3–PEX19 Interaction” (Frontiers in Cell and Developmental Biology, 2021).
Entries after “also recorded” stand apart in the source; their conditions may differ. Like-named read-outs stand apart in the source and are kept apart here.

Tests used:
[1] = target: TbPEX3–TbPEX19 interaction (Trypanosoma brucei brucei, UniProt Q383Q3); assay: AlphaScreen TbPEX3–TbPEX19 inhibitor screening and dose response; format: binding; conditions: for Activity scores (robust z-scores) / Note (activity in the screen): primary AlphaScreen screen, 10 μM compound
TbPEX3–TbPEX19 interaction, sequence (Q383Q3 entry or part of it, other chains not shown): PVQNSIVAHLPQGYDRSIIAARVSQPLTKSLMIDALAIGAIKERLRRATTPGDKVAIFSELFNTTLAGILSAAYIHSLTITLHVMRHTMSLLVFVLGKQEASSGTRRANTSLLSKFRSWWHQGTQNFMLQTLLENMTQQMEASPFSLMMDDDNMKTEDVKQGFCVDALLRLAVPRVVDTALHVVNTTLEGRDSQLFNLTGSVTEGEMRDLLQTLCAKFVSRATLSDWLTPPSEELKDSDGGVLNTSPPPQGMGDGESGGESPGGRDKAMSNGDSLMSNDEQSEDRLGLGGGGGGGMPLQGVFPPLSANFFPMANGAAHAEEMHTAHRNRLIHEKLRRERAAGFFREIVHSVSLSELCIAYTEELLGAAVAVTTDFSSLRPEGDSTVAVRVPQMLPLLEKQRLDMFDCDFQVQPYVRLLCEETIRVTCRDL
Method: The above solutions were prepared in the reaction buffer [0.5% BSA v/v, 0.05% Tween 80 v/v, 0.2 mM DTT, PBS (pH7.4)] on the day of assay, diluting the compounds from 1 mM stocks in DMSO. Compounds were incubated with the proteins for 30 min at room temperature (RT). Five microliters of AlphaScreen Nickel-chelate acceptor beads (cat. no. 6760619C, PerkinElmer®) and AlphaScreen Glutathione donor beads (cat. no. 6765300, PerkinElmer®) were distributed to the mixture consecutively, with a 15-min interval. The complete 25-μl reaction solutions were incubated for 45 min at RT in the dark, and Alpha signals were captured with Cytation 5 plate reader (BioTek®) with the gain value set at 180. Schematic representation of the experiment setup of the high-throughput screening assays was prepared with BioRender.com.
Following initial hit selection, 10 μM of drugs were tested with GST-His (54 nM) and TbPEX19/TbPEX3 (5 nM) in smaller scale, and the level of signal was normalized (in %) and compared.

[2] = ref ChemBridge, cited from earlier work; for Hacc (hydrogen bond acceptor) / Hdon (hydrogen bond donor): provided by the compound library supplier; for LogSw: supplier data
GST-TbPEX3d44 = assay: NMR saturation transfer difference (STD) with GST-TbPEX3; format: binding, Trypanosoma brucei; conditions: 10 μM protein, 300 µM ligand
Method: NMR saturation transfer difference (STD) experiments ([Mayer and Meyer, 1999]) were carried out on a Bruker AVIII 600-MHz spectrometer equipped with a cryoprobe and a SampleJet auto sampler. One-dimensional (1D) and STD spectra were acquired at 298 K. Compounds were dissolved in DMSO-d6 to a final concentration of 50 mM. STD experiments with GST-TbPEX3, TbPEX19-His, and GST-His were performed in PBS (pH 7.4), 10% D2O at a protein concentration of 10 μM, and a ligand concentration of 300 µM. Saturation time and interscan delay within STD experiments were set to 2 and 2.5 s, respectively.

[3] = Cytotoxicity test on HepG2 cells; conditions: human
T. brucei BSF427 = assay: T. brucei cell viability, resazurin-based assay; design: species or system Trypanosoma brucei; conditions: positive control
Method: BSF strain Lister 427 (termed hereafter as BSF427) and cell line 90-13 (stably expressing Tet repressor) were used in this study. BSF cells were grown in HMI-11 medium and maintained in logarithmic phase [below 2 × 10^6 cells/ml as described in [Kalel et al. (2019)]]. Genomically integrated stable transfections were performed with NotI-linearized plasmid constructs (pGN1-TbPEX11), which integrate into the spacer region of the ribosomal RNA repeat locus in the genome of cell line 90-13, and the clones were selected using blasticidin as described previously ([Kalel et al., 2015]). Expression of TbPEX11-GFP was confirmed with fluorescence microscopy following induction tests (data not shown) with a serial dilution of tetracycline, and minimal concentration (5 ng/ml) of tetracycline was used to achieve expression of the protein in more than 80% of the cells.
T. brucei BSF427 and compound dilutions were mixed in 1 : 1 (v/v) ratio to total volume of 200 μl, to reach final concentrations of 2 × 10^3 cells/ml and 0.19–100 μM of inhibitors, in quadruplicates in 96-well plates. Culture medium with no cells was used as negative control and cultures without presence of compounds as positive control representing normal rate of cell growth. Cells were grown at 37°C in an incubator with humidified air containing 5% CO2 for 3 days. Cell viabilities were measured quantitatively using resazurin dye, by adding 25-µl resazurin (0.1 mg/ml in HBSS) to each well, and the mixture incubated for 6 h in the incubator. Fluorescence emission was detected at 570 and 585 nm after excitation at 530 nm, and fluorescence at 570 nm was subtracted from 585 nm. The inhibition curves were fitted with normalized fluorescence signal (in percentage) against concentration of compounds in Log10 scale using GraphPad Prism, and best fit was used for EC50 estimation. Chemical structures were drawn with ChemDraw 20.0.

Row | SMILES | Activity scores (robust z-scores) [1] | Note (activity in the screen) [1] | Hacc (hydrogen bond acceptor) [2] | Hdon (hydrogen bond donor) [2] | LogSw [2] | STD NMR effect with GST-TbPEX3 (GST-TbPEX3d44) | Inhibition of TbPEX3–PEX19 interaction (in words) [1] | EC50 [3] [nM] | EC50 (T. brucei BSF427; Trypanosoma brucei, 72 h, read-out: T. brucei EC50, BSF427, 3 days of incubation, resazurin) [nM] | EC50 (T. brucei BSF427; read-out: T. brucei EC50, BSF427, 3 days of incubation, resazurin) [nM]
1 | O=C(Cc1cccs1)N1C[C@H](O)[C@@H](N2CCCCC2)C1 (racemic) [Compound 41601289, rac-(3S,4S)-4-piperidin-1-yl-1-(2-thienylacetyl)pyrrolidin-3-ol] | 0.3122 | Not active | 3 | 1 | -2.24 | – | – | – | – | –
2 | CCNC(=O)c1cc(NC(=O)C2CCOCC2)ccc1Cl [Compound 5, N-{4-chloro-3-[(ethylamino)carbonyl]phenyl}tetrahydro-2H-pyran-4-carboxamide] | – | – | 3 | 2 | -2.58 | show STD signal; also recorded: consistent STD effects | did not inhibit | – | – | –
3 | CC(CCNC(=O)N1CCC(Oc2ncccn2)CC1)n1ccnc1 (stereo not drawn) [Compound 6, N-[3-(1H-imidazol-1-yl)butyl]-4-(pyrimidin-2-yloxy)piperidine-1-carboxamide] | – | – | 5 | 1 | -2.34 | show STD signal; also recorded: consistent STD effects | did not inhibit | – | – | –
4 | COc1cc(CN2CCCN(Cc3ccccn3)CC2)cc2c1OCO2 [Compound 25282511, 1-[(7-methoxy-1,3-benzodioxol-5-yl)methyl]-4-(pyridin-2-ylmethyl)-1,4-diazepane] | – | Active, require characterization | 6 | 0 | -0.93 | – | – | – | – | –
5 | CCN(Cc1nccn1C)Cc1nccn1-c1ccc(OC)cc1 [Compound 26410952, N-{[1-(4-methoxyphenyl)-1H-imidazol-2-yl]methyl}-N-[(1-methyl-1H-imidazol-2-yl)methyl]ethanamine] | – | Active, require characterization | 4 | 0 | -3.12 | – | – | – | – | –
6 | CNC(=O)c1cccc(NC(=O)C2CCOC(C)(C)C2)c1C (stereo not drawn) [Compound 31960442, 2,2-dimethyl-N-{2-methyl-3-[(methylamino)carbonyl]phenyl}tetrahydro-2H-pyran-4-carboxamide] | 0.2733 | Not active | 3 | 2 | -2.90 | – | – | – | – | –
7 | Cc1cc(=O)n(CCN(Cc2ccccn2)CC2CCCO2)c(=O)[nH]1 (stereo not drawn) [Compound 54483906, 6-methyl-3-{2-[(pyridin-2-ylmethyl)(tetrahydrofuran-2-ylmethyl)amino]ethyl}pyrimidine-2,4(1H,3H)-dione] | – | Active, require characterization | 5 | 1 | -1.32 | – | – | – | – | –
8 | CC(C)c1cc(C2CCCN2C(=O)c2ccc(-c3nnn(C)n3)cc2)no1 (stereo not drawn) [Compound 54866350, 5-(4-{[2-(5-isopropylisoxazol-3-yl)pyrrolidin-1-yl]carbonyl}phenyl)-2-methyl-2H-tetrazole] | 2.5166 | Not active | 6 | 0 | -2.94 | – | – | – | – | –
9 | CC(=O)Nc1ccccc1NC(=O)CN(C)Cc1cnn(C)c1 [Compound 67602110, N~1~-[2-(acetylamino)phenyl]-N~2~-methyl-N~2~-[(1-methyl-1H-pyrazol-4-yl)methyl]glycinamide] | 0.7988 | Not active | 4 | 2 | -2.21 | – | – | – | – | –
10 | COCCN(Cc1cn2ccc(C)cc2n1)Cc1nccs1 [Compound 79442734, (2-methoxyethyl)[(7-methylimidazo[1,2-a]pyridin-2-yl)methyl](1,3-thiazol-2-ylmethyl)amine] | – | Active, require characterization | 4 | 0 | -2.43 | – | – | – | – | –
11 | COc1cccc(N2CCN(C(=O)c3cccc(-c4cn[nH]c4)c3)CC2)c1 [Compound 92838291, 1-(3-methoxyphenyl)-4-[3-(1H-pyrazol-4-yl)benzoyl]piperazine] | 1.4019 | Not active | 3 | 1 | -3.20 | – | – | – | – | –
12 | CN[C@@H]1C[C@H](N)[C@@H](O)[C@H](O[C@H]2O[C@H](CO)[C@H](O)[C@@H]3O[C@@]4(O[C@@H]23)O[C@H]([C@H](N)CO)[C@H](O)[C@H](O)[C@H]4O)[C@H]1O [Hygromycin, reference compound] | – | – | – | – | – | – | – | 16200 | – | –
13 | Cc1ccc(C(=O)Nc2ccc(S(=O)(=O)O)c3cc(S(=O)(=O)O)cc(S(=O)(=O)O)c23)cc1NC(=O)c1cccc(NC(=O)Nc2cccc(C(=O)Nc3cc(C(=O)Nc4ccc(S(=O)(=O)O)c5cc(S(=O)(=O)O)cc(S(=O)(=O)O)c45)ccc3C)c2)c1 [suramin, reference compound] | – | – | – | – | – | – | – | – | 37 | 37.1
